Among the data in patent publication US12516056B2, “Compounds for inhibition of janus kinase 1” (MANKIND PHARMA LTD., priority 2019, dated 2026) are IC50 values, retold here.

Assay [1] deals with T1, Recombinant JAK2 (Homo sapiens, UniProt O60674).
T1 construct: purchased Carna Biosciences
The assay can be described thus: JAK biochemical assay (LANCE Ultra TR-FRET), JAK2. Particulars: recombinant JAK2, TR-FRET; read-out: Biochemical Assay (μM) JAK2. As for the experimental part:
(§1) Recombinant JAK1, JAK2, JAK3 and TYK2 (Carna Biosciences) were used to develop biochemical assays in 50 mM HEPES pH 7.5, 1 mM EGTA, 10 mM MgCl2, 2 mM DTT and 0.01% Tween-20. […] The intensity of the light emission is proportional to the level of ULight substrate phosphorylation. Compounds which interfere with JAK enzyme activity show a lesser substrate phosphorylation and values are projected in terms of % inhibition in comparison to vehicle control.
In general terms: TR-FRET usually uses a lanthanide donor and a delayed reading to cut background.

The target of assay [2] is T2, Recombinant TYK2 (Homo sapiens, UniProt P29597).
T2 construct: purchased Carna Biosciences
T2 sequence (P29597 whole entry): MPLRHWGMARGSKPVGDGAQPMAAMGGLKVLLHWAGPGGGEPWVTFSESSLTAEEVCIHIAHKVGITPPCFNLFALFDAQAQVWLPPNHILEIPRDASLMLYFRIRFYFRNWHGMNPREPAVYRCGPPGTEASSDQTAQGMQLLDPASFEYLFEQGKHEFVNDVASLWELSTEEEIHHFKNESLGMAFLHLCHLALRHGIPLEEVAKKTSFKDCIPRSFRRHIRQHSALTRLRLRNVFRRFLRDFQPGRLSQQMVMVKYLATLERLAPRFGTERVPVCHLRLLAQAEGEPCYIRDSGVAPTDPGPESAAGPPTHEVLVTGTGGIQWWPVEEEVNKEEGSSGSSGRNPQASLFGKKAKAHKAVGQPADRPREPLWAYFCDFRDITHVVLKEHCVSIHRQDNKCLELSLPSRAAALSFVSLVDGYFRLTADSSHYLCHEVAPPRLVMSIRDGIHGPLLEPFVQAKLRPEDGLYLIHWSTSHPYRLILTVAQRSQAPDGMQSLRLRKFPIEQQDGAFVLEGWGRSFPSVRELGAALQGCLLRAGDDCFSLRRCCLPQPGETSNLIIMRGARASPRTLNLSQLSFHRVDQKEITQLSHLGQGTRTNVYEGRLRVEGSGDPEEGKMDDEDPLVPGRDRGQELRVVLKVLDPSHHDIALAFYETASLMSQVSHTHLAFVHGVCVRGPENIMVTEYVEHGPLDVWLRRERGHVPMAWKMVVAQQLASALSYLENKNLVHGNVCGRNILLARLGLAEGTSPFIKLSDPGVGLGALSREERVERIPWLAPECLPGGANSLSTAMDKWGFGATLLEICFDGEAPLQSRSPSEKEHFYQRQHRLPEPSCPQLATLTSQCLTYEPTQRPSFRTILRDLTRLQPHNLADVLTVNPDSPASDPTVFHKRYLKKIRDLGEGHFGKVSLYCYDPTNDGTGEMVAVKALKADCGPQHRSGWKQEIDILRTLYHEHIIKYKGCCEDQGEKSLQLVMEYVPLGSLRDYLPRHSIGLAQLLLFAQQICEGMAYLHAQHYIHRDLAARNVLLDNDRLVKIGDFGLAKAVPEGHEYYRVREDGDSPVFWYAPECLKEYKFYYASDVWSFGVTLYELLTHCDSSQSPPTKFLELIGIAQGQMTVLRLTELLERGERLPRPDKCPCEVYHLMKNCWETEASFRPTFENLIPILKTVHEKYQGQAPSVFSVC
The assay can be described thus: JAK biochemical assay (LANCE Ultra TR-FRET), TYK2. The note with it: recombinant TYK2, TR-FRET; read-out: Biochemical Assay (μM) TYK2. How it is done:
as §1

Assay [3] deals with T3, Recombinant JAK3 (Homo sapiens, UniProt P52333).
T3 construct: purchased Carna Biosciences
T3 sequence (P52333 1-1124): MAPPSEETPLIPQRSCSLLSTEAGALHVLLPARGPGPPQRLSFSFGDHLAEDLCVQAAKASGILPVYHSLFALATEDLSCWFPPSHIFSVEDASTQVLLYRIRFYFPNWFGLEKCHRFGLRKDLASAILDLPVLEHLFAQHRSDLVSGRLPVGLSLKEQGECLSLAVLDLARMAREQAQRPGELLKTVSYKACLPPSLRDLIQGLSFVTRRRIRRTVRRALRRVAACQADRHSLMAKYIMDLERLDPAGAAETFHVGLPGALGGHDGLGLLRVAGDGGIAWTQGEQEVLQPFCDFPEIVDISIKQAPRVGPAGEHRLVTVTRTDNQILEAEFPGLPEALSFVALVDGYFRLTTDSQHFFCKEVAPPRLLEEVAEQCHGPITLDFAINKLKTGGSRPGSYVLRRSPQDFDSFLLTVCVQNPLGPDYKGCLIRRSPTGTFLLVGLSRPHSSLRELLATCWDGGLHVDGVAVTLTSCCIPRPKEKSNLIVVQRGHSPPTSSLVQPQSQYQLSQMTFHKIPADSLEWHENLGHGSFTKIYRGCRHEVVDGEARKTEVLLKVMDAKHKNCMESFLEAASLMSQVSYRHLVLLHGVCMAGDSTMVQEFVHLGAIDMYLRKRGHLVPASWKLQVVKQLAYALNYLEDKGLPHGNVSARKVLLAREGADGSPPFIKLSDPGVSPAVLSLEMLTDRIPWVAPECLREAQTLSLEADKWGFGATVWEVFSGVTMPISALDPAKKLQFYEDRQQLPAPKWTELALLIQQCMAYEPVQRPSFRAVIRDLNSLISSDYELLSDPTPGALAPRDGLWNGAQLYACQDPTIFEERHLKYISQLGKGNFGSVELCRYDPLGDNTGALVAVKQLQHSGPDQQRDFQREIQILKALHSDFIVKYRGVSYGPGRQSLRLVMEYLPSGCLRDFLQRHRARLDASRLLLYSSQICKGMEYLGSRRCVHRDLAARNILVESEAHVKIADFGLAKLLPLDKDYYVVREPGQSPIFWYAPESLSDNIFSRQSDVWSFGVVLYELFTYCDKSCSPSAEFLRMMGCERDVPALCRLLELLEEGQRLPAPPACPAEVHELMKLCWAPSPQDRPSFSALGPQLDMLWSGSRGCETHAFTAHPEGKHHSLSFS
The assay can be described thus: JAK biochemical assay (LANCE Ultra TR-FRET), JAK3. The note with it: recombinant JAK3, TR-FRET; read-out: Biochemical Assay (μM) JAK3. As for the experimental part: as §1

In assay [4] the target is T4, Recombinant JAK1 (Homo sapiens, UniProt P23458).
T4 construct: purchased Carna Biosciences
T4 sequence (P23458 whole entry): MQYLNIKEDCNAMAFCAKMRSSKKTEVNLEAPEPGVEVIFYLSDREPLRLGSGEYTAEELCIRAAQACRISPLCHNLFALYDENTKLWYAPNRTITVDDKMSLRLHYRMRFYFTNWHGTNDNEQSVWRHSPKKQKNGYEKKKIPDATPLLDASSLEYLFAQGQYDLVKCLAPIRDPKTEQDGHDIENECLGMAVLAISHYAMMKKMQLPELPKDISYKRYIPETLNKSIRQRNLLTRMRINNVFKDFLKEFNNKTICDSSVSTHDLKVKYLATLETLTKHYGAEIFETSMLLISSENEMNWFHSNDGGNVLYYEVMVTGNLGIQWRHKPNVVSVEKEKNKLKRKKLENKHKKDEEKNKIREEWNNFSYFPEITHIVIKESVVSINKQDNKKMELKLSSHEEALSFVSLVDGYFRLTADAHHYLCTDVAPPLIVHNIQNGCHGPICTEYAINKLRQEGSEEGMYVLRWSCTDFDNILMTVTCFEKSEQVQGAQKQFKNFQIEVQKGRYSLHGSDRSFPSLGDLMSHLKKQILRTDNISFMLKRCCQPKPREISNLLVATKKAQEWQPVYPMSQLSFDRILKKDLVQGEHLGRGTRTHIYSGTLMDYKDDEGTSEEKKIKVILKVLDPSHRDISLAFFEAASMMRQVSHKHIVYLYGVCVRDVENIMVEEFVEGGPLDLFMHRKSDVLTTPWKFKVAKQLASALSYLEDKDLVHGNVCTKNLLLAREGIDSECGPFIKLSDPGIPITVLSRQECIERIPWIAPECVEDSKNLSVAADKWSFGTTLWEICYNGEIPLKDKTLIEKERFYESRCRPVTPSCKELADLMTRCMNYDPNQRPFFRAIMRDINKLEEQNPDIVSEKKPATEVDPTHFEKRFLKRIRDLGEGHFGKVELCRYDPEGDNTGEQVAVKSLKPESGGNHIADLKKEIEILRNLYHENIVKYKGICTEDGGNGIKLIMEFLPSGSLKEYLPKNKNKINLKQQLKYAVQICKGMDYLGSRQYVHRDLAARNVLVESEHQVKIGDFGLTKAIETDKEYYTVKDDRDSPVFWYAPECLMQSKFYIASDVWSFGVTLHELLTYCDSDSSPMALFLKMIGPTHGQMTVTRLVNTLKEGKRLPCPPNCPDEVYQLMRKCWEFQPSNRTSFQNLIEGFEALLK
The assay can be described thus: JAK biochemical assay (LANCE Ultra TR-FRET), JAK1. Particulars: recombinant JAK1, TR-FRET; read-out: Biochemical Assay (μM) JAK1. How it is done: as §1

T1 sequence (O60674 whole entry): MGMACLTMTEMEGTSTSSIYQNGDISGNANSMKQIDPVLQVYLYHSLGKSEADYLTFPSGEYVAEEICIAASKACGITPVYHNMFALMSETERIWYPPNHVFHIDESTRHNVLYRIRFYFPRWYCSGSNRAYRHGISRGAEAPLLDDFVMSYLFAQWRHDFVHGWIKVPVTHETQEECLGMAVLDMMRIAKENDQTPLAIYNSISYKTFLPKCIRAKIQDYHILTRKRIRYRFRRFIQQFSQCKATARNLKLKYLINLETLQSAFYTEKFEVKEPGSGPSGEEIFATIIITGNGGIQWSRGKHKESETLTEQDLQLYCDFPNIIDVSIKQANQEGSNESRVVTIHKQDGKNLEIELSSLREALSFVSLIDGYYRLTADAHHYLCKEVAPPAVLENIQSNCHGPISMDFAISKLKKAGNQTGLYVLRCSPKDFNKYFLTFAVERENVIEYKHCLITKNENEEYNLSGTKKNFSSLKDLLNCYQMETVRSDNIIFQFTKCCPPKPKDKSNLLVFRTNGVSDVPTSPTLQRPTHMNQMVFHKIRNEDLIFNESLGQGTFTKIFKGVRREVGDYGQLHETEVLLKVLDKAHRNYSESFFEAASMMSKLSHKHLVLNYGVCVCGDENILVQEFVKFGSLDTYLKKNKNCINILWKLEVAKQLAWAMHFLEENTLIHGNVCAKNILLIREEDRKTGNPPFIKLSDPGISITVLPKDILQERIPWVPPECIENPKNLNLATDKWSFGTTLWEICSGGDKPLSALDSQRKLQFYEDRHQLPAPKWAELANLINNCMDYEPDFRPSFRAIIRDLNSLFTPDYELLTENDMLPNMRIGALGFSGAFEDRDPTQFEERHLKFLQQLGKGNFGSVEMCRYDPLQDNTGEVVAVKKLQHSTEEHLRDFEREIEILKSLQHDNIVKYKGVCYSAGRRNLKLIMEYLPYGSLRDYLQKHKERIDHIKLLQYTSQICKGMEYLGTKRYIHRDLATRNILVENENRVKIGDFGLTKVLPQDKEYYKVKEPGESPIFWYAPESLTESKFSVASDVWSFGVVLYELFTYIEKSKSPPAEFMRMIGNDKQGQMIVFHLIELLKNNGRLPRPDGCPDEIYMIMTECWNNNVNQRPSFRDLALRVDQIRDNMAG

As to `CS(=O)(=O)N1CCC(C(O)c2ccc(-n3cc(-c4ccnc5[nH]cnc45)cn3)nc2)CC1` (stereo not drawn) [Example 1164, (6-(4-(3H-imidazo[4,5-b]pyridin-7-yl)-1H-pyrazol-1-yl)pyridin-3-yl)(1-(methylsulfonyl)piperidin-4-yl)methanol], the IC50 in assay [1], in assay [2], in assay [3] and in assay [4] was above 1 µM each time.

`O=C(NCC1CCCC1)N1CCN(c2ccnc3[nH]c(=O)[nH]c23)CC1` [Example 1017, N-(cyclopentylmethyl)-4-(2,3-dihydro-2-oxo-1H-imidazo[4,5-b]pyridin-7-yl)piperazine-1-carboxamide]: the IC50 in assay [1] is above 1 µM; in assay [2], above 10 µM; in assay [3], above 10 µM; in assay [4], above 1 µM.

As to `O=C(NCC(F)(F)F)n1cc(-c2ccnc3[nH]c(C4CC4)nc23)cn1` [Example 1096, 4-(2-cyclopropyl-3H-imidazo[4,5-b]pyridin-7-yl)-N-(2,2,2-trifluoroethyl)-1H-pyrazole-1-carboxamide], the IC50 in assay [1] was above 1 µM; in assay [2] it was above 10 µM; in assay [3], above 1 µM; in assay [4], above 10 µM.

Turning to `N#CCC(NC(=O)n1cc(-c2ccnc3[nH]c(=O)[nH]c23)cn1)C1CCOCC1` (stereo not drawn) [Example 1062, N-(2-cyano-1-(tetrahydro-2H-pyran-4-yl)ethyl)-4-(2,3-dihydro-2-oxo-1H-imidazo[4,5-b]pyridin-7-yl)-1H-pyrazole-1-carboxamide], the IC50 in assay [1], in assay [2], in assay [3] and in assay [4] was below 0.5 µM each time.

Take `N#CC1CN(C(=O)c2ccc(-n3cc(-c4ccnc5[nH]cnc45)cn3)nc2)C1` [Example 1089, 1-(6-(4-(3H-imidazo[4,5-b]pyridin-7-yl)-1H-pyrazol-1-yl)nicotinoyl)azetidine-3-carbonitrile]: the IC50 in assay [1] is above 0.5 µM; in assay [2], above 1 µM; in assay [3], above 1 µM; in assay [4], above 0.5 µM.

Regarding `CS(=O)(=O)COC(c1ccc(-n2cc(-c3ccnc4[nH]cnc34)cn2)nc1)C(F)(F)F` (stereo not drawn) [Example 1140, 7-(1-(5-(1-((methylsulfonyl)methoxy)-2,2,2-trifluoroethyl)pyridin-2-yl)-1H-pyrazol-4-yl)-3H-imidazo[4,5-b]pyridine], the IC50 in assay [1] is below 0.1 µM; in assay [2], above 1 µM; in assay [3] it was below 0.1 µM; in assay [4], below 0.1 µM.

For `CC(C)OC(c1ccc(-n2cc(-c3ccnc4[nH]cnc34)cn2)nc1)C(F)(F)F` (stereo not drawn) [Example 1124, 7-(1-(5-(2,2,2-trifluoro-1-isopropoxyethyl)pyridin-2-yl)-1H-pyrazol-4-yl)-3H-imidazo[4,5-b]pyridine], the IC50 in assay [1] is above 1 µM; in assay [2] it was above 1 µM; in assay [3], above 0.5 µM; in assay [4] it was above 1 µM.

`N#CCc1ccc(-n2cc(-c3ccnc4[nH]cnc34)cn2)cc1F` [Example 1104, 2-(4-(4-(3H-imidazo[4,5-b]pyridin-7-yl)-1H-pyrazol-1-yl)-2-fluorophenyl)acetonitrile]: the IC50 in assay [1] was below 0.5 µM; in assay [2] it was above 1 µM; in assay [3] it was below 0.5 µM; in assay [4], above 1 µM.

On to `N#CC1CN(Cc2ccc(-n3cc(-c4ccnc5[nH]cnc45)cn3)nc2)C1` [Example 1087, 1-((6-(4-(3H-imidazo[4,5-b]pyridin-7-yl)-1H-pyrazol-1-yl)pyridin-3-yl)methyl)azetidine-3-carbonitrile], for which the IC50 in assay [1] was above 1 µM; in assay [2], above 10 µM; in assay [3], above 1 µM; in assay [4] it was above 0.5 µM.

As for `CC(C)(O)CC(c1ccc(-n2cc(-c3ccnc4[nH]cnc34)cn2)nc1)C(F)(F)F` (stereo not drawn) [Example 1193, 4-(6-(4-(3H-imidazo[4,5-b]pyridin-7-yl)-1H-pyrazol-1-yl)pyridin-3-yl)-5,5,5-trifluoro-2-methylpentan-2-ol], the IC50 in assay [1] was above 0.5 µM; in assay [2], above 1 µM; in assay [3], above 0.1 µM; in assay [4], above 0.1 µM.

Consider `N#CCC1CCN(C(=O)n2cc(-c3ccnc4[nH]c(=O)[nH]c34)cn2)C1` (stereo not drawn) [Example 1057, 2-(1-(4-(2-oxo-2,3-dihydro-1H-imidazo[4,5-b]pyridin-7-yl)-1H-pyrazole-1-carbonyl)pyrrolidin-3-yl)acetonitrile], for which the IC50 was above 0.5 µM in assay [1], above 1 µM in assay [2], above 0.5 µM in assay [3] and above 0.5 µM in assay [4].

`CS(=O)(=O)N1CC(C(C#N)c2ccc(-n3cc(-c4ccnc5[nH]cnc45)cn3)nc2)C1` (stereo not drawn) [Example 1115, 2-(6-(4-(3H-imidazo[4,5-b]pyridin-7-yl)-1H-pyrazol-1-yl)pyridin-3-yl)-2-(1-(methylsulfonyl)azetidin-3-yl)acetonitrile]: the IC50 was above 0.5 µM in assay [1], above 1 µM in assay [2], above 0.5 µM in assay [3] and above 0.5 µM in assay [4].

For the compound `O=C(NCC(F)(F)F)c1ccc(-c2ccnc3[nH]c(=O)[nH]c23)cc1` [Example 1001, N-(2,2,2-trifluoroethyl)-4-(2,3-dihydro-2-oxo-1H-imidazo[4,5-b]pyridin-7-yl)benzamide], the IC50 in assay [1], in assay [2], in assay [3] and in assay [4] was above 10 µM each time.

As to `O=C(CC(c1ccc(-n2cc(-c3ccnc4[nH]cnc34)cn2)nc1)C(F)(F)F)N1CCOCC1` (stereo not drawn) [Example 1249, 3-(6-(4-(3H-imidazo[4,5-b]pyridin-7-yl)-1H-pyrazol-1-yl)pyridin-3-yl)-4,4,4-trifluoro-1-morpholinobutan-1-one], the IC50 was above 0.5 µM in assay [1], above 1 µM in assay [2], above 0.5 µM in assay [3] and above 0.5 µM in assay [4].

With `O=S(=O)(CCC(c1ccc(-n2cc(-c3ccnc4[nH]cnc34)cn2)nc1)C(F)(F)F)CC1CC1` (stereo not drawn) [Example 1204, 7-(1-(5-(4-(cyclopropylmethylsulfonyl)-1,1,1-trifluorobutan-2-yl)pyridin-2-yl)-1H-pyrazol-4-yl)-3H-imidazo[4,5-b]pyridine], the IC50 is below 0.1 µM in assay [1], above 1 µM in assay [2], below 0.1 µM in assay [3] and below 0.1 µM in assay [4].

Take `CC1(C)CN(C(=O)N2CCN(c3ccnc4[nH]c(=O)[nH]c34)CC2)C1` [Example 1023, 7-(4-(3,3-dimethylazetidine-1-carbonyl)piperazin-1-yl)-1,3-dihydro-2H-imidazo[4,5-b]pyridin-2-one]: the IC50 in assay [1], in assay [2], in assay [3] and in assay [4] was above 10 µM in each case.

For `N#CCC(NC(=O)n1cc(-c2ccnc3[nH]cnc23)cn1)C1CCOCC1` (stereo not drawn) [Example 1065, N-(2-cyano-1-(tetrahydro-2H-pyran-4-yl)ethyl)-4-(3H-imidazo[4,5-b]pyridin-7-yl)-1H-pyrazole-1-carboxamide], the IC50 in assay [1] is below 0.5 µM; in assay [2], above 0.5 µM; in assay [3], above 0.5 µM; in assay [4], above 0.5 µM.

Regarding `O=C(NCC(F)(F)F)n1cc(-c2cccc3[nH]c(=O)[nH]c23)cn1` [Example 1036, N-(2,2,2-trifluoroethyl)-4-(2,3-dihydro-2-oxo-1H-benzo[d]imidazol-4-yl)-1H-pyrazole-1-carboxamide], the IC50 in assay [1], in assay [2], in assay [3] and in assay [4] was above 10 µM each time.
